# Measurements published in US20230126411A1, “DEUTERIUM MAGNETIC RESONANCE IMAGING” (University of Florida Research Foundation, Inc., priority 2020, published 2023).
# Assays:
# [1] = tested on: AML12 cells; assay: [2H7]glucose consumption, lactate isotopomer and HDO production in cell media by 1H/2H-NMR; type: cell-based; details: for concentration of consumed [2H7]glucose / produced lactate isotopomers and HDO in cell media: 5.5 mM [2H7]glucose; for number of μmol of 2H: 2H mass balance
# Method: (§1) HUH-7 or AML12 cell lines were cultured in a complete growth medium made up of Dulbecco's Modified Eagle Medium (DMEM) with 10% v/v FBS, 10,000 units/mL penicillin, 10,000 μg/mL streptomycin, 25 μg/mL amphotericin B and 5.5 mM [^2H7]glucose. Cell lines were maintained at 37° C. in a 5% CO2 in air atmosphere in an air-jacketed incubator (Heracell Vios 160i, Thermo Scientific, Waltham, Mass.). Growth media was replaced every 3 days, and subcultured 1:5 at 80% confluence. 25 cm^2 cell culture plates, containing 15 million HUH-7 or AML12 cells at 70-80% confluence, were washed once with warm PBS and incubated with 4 mL each of DMEM with deuterated tracer for 5h, withdrawing 100 μL aliquots at 20 min, 1h, 2h, and 5h.
# (§2) No extraction was performed on the cell media samples. Pyrazine and pyrazine-D4 were mixed to achieve 5 mM concentration of each of the standards in each cell media samples of HUH-7 and AML12 cells. Pyrazine and pyrazine-D4 served as an internal standard to quantify the lactate isotopomers from ^1H-NMR data and HDO as well as residual [^2H7]glucose from ^2H-NMR data respectively. 40 μL of cell medium was transferred into 1.7 mm NMR tubes for NMR analysis. ^1H-NMR Spectroscopy
# (§3) All NMR spectra were recorded on a 600.23 MHz NMR, equipped with a 1.7 mm TCI CryoProbe and Avance Neo Console (Bruker Biospin). All NMR experiments were set up in the lock off followed by sweep off mode. ^2H-decoupling off and on ^1H-NMR spectra were acquired with a sequence that alternated decoupling with each scan. Relaxation delay (d1) of 1.5s and acquisition time (AQ) of 2s (3.5s of recycling time, Tr) and a 90° pulse of 10.50 μs was used for acquisition of each of the spectra. The WET method containing selective pulses was applied on the strong water resonance (M o, H. & Raftery, D. J. Biomol. NMR 2008 41:105-111). Waltz16 ^2H-decoupling sequence consists of 90° pulse of 250 μs with decoupling power of 1.72watts, producing B, of 1 kHz during the acquisition period. 13,157 complex data points were acquired with the spectral width of 11 ppm. 128 scans were used to acquire each spectrum. 4 dummy scans were also used for equilibration of the spin states prior to acquisition. A modified T1 inversion recovery pulse sequence with ^2H-decoupling on during the acquisition was used to measure the T1 of the lactate isotopomers and pyrazine standard. Relaxation delay (d1) of 50s and inversion recovery delays (T) of 0.001, 0.6, 0.9, 1.5, 2.0, 3.0, 6.0, 9.0, 14.0, 20.0, 30.0 and 40.0s were used to determine the T1 of lactate isotopomers.
# (§4) The deuterium lock channel was used to acquire the ^1H-decoupled ^2H-NMR spectrum at 92.13 MHz resonant frequency. Relaxation delay (d1) of 2s and acquisition time (AQ) of 1s (3s of recycling time, Tr) with a 90° pulse was used to acquire each of the ^2H-NMR spectra. 1086 complex data points were digitized with the spectral width of 11 ppm using 1024 scans for each of the 5 FIDs (5120 scans) for each of the samples. T1 inversion recovery pulse sequence was used to calculate the T1 relaxation times of HDO and pyrazine-D4 standard. Relaxation delay (d1) of 5s, acquisition time (AQ) of 1s and inversion recovery delays (T) of 0.001, 0.1, 0.4, 0.8, 1.6, and 3.2s were used to acquire an array of FIDs to calculate the T1 of HDO and pyrazine-D4. All NMR experiments were carried out at the room temperature (25° C.). ^1H-NMR Data Processing and Quantification of Lactate Isotopomers
# (§5) For processing of the ^1H-NMR spectrum, the spectra were zero-filled to 32,768 points with an exponential window function of 0.3 Hz before the Fourier Transform (FT). Manual phase and automatic spline baseline correction were performed on each of the spectra. ^2H-decoupled ^1H-NMR spectra of each time point were used for the extraction of the areas of lactate isotopomers. The MestReNova line fitting tool was used to extract the peak areas of the slightly overlapped signals for quantification of the lactate isotopomers. […]
# [2] = tested on: HUH-7 hepatocellular carcinoma cells; assay: as above; type: cell-based; details: for concentration of consumed [2H7]glucose / produced lactate isotopomers and HDO in cell media: 5.5 mM [2H7]glucose; for number of μmol of 2H: 2H mass balance; for rate of production of lactate isotopomer: efflux into medium, linear regression over incubation time
# Method: as §1, §2, §3, §4, §5
# [3] = T1 inversion recovery NMR of lactate isotopomers, HDO and standards in cell media; type: physicochemical; details: 25° C., cell medium; for deuterium T1 relaxation time: 2H-NMR 92.13 MHz; for proton T1 relaxation time: 1H-NMR 600.23 MHz, 2H-decoupling on
# Method: as §3, §4
# Once the lactate isotopomers were identified, it would be expected to observe differential changes in T1 due to a loss of ^1H dipolar relaxation. T1 inversion recovery experiments were performed in the ^2H-decoupling on mode to calculate the T1 relaxation time of the pyrazine and lactate isotopomers. […] A and B marks on the uppermost spectrum represent the pyrazine standard and methyl signals of the lactate isotopomers respectively. Integral areas of each of the lactate isotopomers and pyrazine standard were extracted to calculate the T1 relaxation times. Data was fit to the standard T1 equation, Mz(t)=M0(1-2*^T/T1), to extract the T1s. […] T1 relaxation time of the HDO and pyrazine-D4 standard were calculated using the inversion recovery ^2H-NMR data (FIG. 10) and found to be 0.49s and 0.45s respectively.
# [4] = tested on: rat brain; assay: Deuterium MR spectroscopy of rat brain and plasma 2H NMR after tail vein infusion of [2H7]glucose
# Text: All experimental procedures were approved by the University of Florida Institutional Animal Care and Use Committee. Female Sprague Dawley rats (body weight: ˜220 g) were purchased from Jackson Laboratories and acclimatized in the University's animal care facilities. All rats were in the fed state. The rat was anesthetized with 2% isoflurane in a mixture of O2 and N2 gases. The tail vein was catheterized using a 23-gauge needle for the infusion of [^2H7]glucose tracer. The body temperature of the rat was maintained at 37° C. using a heated circulating water pad. The respiratory rate was monitored during the entire period of the experiment. After shimming the magnet, three baseline ^2H spectra were acquired. Subsequently, a 2 minute tail vain infusion of [^2H7]glucose (1.95 g/kg body weight and dissolved in 2.3 mL saline) was administered. Blood was drawn after the end of spectroscopy and imaging experiments via saphenous vein and blood plasma was separated by centrifugation of the blood at 4° C. for 10 minutes. Circulating blood glucose was assessed by a blood draw and glucometer (Evancare, Medline Industries, Northfield, IL) prior to infusion and 3 hours after the glucose injection.
# Animal experiments were performed on an 11.1 T Magnex magnet (Magnex Scientific Ltd.) interfaced to a BrukerAvance Ill HD console running on ParaVision 6.0.1 (Bruker Instruments, Billerica, Mass.). The MRI system was equipped with RRI BFG-240/120-S6 gradient coil with the bore size of 120 mm and capable of producing 100 mT/m with 200 μs rise time. A shim map was generated for localized shimming on rat brain using an 85 mm home-built, actively-decoupled, linear volume ^1H transmit-receive coil. The coil was tuned to the ^1H NMR frequency at 470 MHz. A home-built 14 mm diameter, circular surface coil tuned to 72.26 MHz was used to acquire ^2H spectra and images.
# The ^2H coil was placed over the rat head and a 3D printed phantom containing approximately 200 μl of natural abundance water was placed on the top of the coil to confirm positioning. The ^2H RF pulse and flip angle were optimized to maximize the ^2H signals from the rat brain. A partial signal contribution from the natural abundance ^2H of the water phantom was unavoidable but was accounted for by subtraction of the signal areas from runs that followed the glucose injection. […] Spectra were acquired with a 1 kHz width and 256 data points for each free induction decay (FID), a repetition time of 300 ms, and a flip angle of 60° with 256 averages. The total acquisition time for each spectrum was 1.28 minutes. A total of 30 spectra were acquired for a 38-minute time period. Two additional ^2H NMR spectra from the rat brain were acquired at 2 hours and 2.5 hours following [^2H7]glucose infusion. Pyrazine-D4 (2.5 mM, internal standard) was added in each plasma sample to calculate the HDO concentration in plasma. ^2H NMR spectra were collected on Bruker 14 T NMR magnet system equipped with a 1.7 mm TCl CryoProbe and Avance Neo console (Bruker BioSpin). ^2H NMR spectra of plasma samples were acquired at 92.13 MHz resonant frequency with an acquisition time of 1.0 s, relaxation delay of 2 s, and 3072 scans.
# ^2H NMR data analysis was performed using MestReNova v14.0.1-23284 (Mestrelab Research S. L., Santiago, Spain). For processing of the ^2H NMR, each spectrum was Fourier transformed with an exponential window function of 2.0 Hz, zero-filling of 512 data points and automatic phase correction was also applied. Peak areas were extracted for HDO, [^2H7]glucose including the anomeric signal, deuterated glx (glutamate/glutamine) and lactate from the ^2H NMR spectra of the rat brain. 2D ^1H and ^2H images were processed in the ImageJ software (NIH, Bethesda, Md.).
Compound,concentration of consumed [2H7]glucose / produced lactate isotopomers and HDO in cell media ([1]; 5 hour time point) [µmol/L],number of μmol of 2H ([1]; 5 hour time point) [µmol],concentration of consumed [2H7]glucose / produced lactate isotopomers and HDO in cell media ([2]; 5 hour time point) [µmol/L],number of μmol of 2H ([2]; 5 hour time point) [µmol],rate of production of lactate isotopomer [2] [micromol/10^6 cells/min],proton T1 relaxation time [3] [s],also measured
"[2H]O [HDO, hydrogen-deuterium oxide]",2003.12,2003.12,18240.0,18240.0,,,"deuterium T1 relaxation time [3]: 0.49 s; final body water HDO enrichment ([4]; rat blood plasma at end of experiment, n=4): 86.9 ± 5.16 mM; final estimated HDO concentration in brain ([4]; rat brain, longer time points (2.5 hrs) post-[2H7]glucose infusion, N=3): approximately 48±10 mM; final HDO signal relative to natural abundance signal ([4]; rat brain, longer time points post-infusion): approximately 3.5 ×; time range of pseudo-steady state of HDO (and HDO plus lactate) to glx ratios ([4]; rat brain, post-[2H7]glucose infusion): 10 to 24 min; body water enrichment of HDO relative to brain concentration ([4]; rat, final time point): approximately 1.8 ×"
[2H]CC(O)C(=O)O (stereo not drawn) [Lactate-CH2D],229.26,229.26,1520.0,1520.0,0.35,2.49,
[2H]C([2H])C(O)C(=O)O (stereo not drawn) [Lactate-CHD2],353.07,706.14,2442.47,4884.9,0.57,4.21,concentration of lactate-CHD2 relative to the -CH2D isotopomer ([2]; 5 hour time point): 1.6 fold
CC(O)C(=O)O (stereo not drawn) [lactate-CH3],,,,,0.17,1.85,
"c1cnccn1 [pyrazine, Pyrazine, reference compound]",,,,,,6.45,
"[2H]c1nc([2H])c([2H])nc1[2H] [pyrazine-D4, Pyrazine-D4, reference compound]",,,,,,,deuterium T1 relaxation time [3]: 0.45 s
"[1,2,3,4,5,6,6-^2H7]-D-glucose [[^2H7]glucose, reference compound]",586.52,4105.60,3650.0,25550.0,,,"Number of μmol of 2H in 2H-lactate & HDO ([1]; 5 hour time point, sum): 2938.52 µmol; [2H7]glucose uptake and HDO and 2H-lactate production compared to HUH-7 ([1]; qualitative): much lower; 2H atoms of [2H7]glucose incorporated into 2H-lactate and HDO ([2]; 2H mass balance at 5 hour time point): Approximately 96%; Number of μmol of 2H in 2H-lactate & HDO ([2]; 5 hour time point, sum): 24644.9 µmol; cellular [2H7]glucose uptake and HDO production rate compared to AML12 cells ([2]; qualitative, stacked 2H-NMR spectra): very high; fate of the glucose bolus in brain ([4]; rat, in vivo): almost completely metabolized; time of peak delivery of [2H7]glucose into the brain ([4]; rat, in vivo): approximately 10 minutes post infusion; final blood glucose concentration ([4]; rat, 3 hours after injection of 1.95 g/kg [2H7]glucose, n=4): 7.1 ± 1.8 mM"
